In patent publication US11628147B2, “Vitamin K2 compositions for the treatment of drug induced neuropathy” (priority 2017, dated 2023):

Legend:
[1] = system: symptoms of drug-induced peripheral neuropathy in multiple myeloma patients on chemotherapy; experiment: Open labelled study of vitamin K2-7 on drug-induced peripheral neuropathy, symptoms scored by VAS; type: in vivo, human; conditions: for VAS Score: scale 0-10
Experimental: An open labelled study was conducted to evaluate the effect of vitamin K2-7 on drug-induced peripheral neuropathy. Patients who were diagnosed with multiple myeloma and are on chemotherapy treatment for the same, were assessed for the occurrence of symptoms of peripheral neuropathy and then selected. Patients were given 2 capsules of 100 mcg or 350 mcg of vitamin K2-7 along with the ongoing chemotherapy. The evaluation of symptoms of peripheral neuropathy (such as tingling, numbness, burning sensation, muscle cramps etc.) were assessed by VAS score (Schematic 1) from 0 to 10 (nil to unbearable). The scale has been used in various studies to measure the intensity and severity of various symptoms of neuropathy.
As the patients continued with the therapy, it was observed that the VAS score for all the symptoms decreased to between the range of “1” and “2”. This decrease has happened over a period of 2 to 5 months, depending upon the individual cases treated. […] The examples given in Table 1, summarises the data for 11 patients who were on vitamin K2-7 therapy for drug-induced peripheral neuropathy due to treatment for multiple myeloma. In Table 1, treatment administered refer to the cyclical chemotherapy provided to the patients of multiple myeloma (MM). These cycles are normally of 3 weeks or 21 days period, based on the attending physician's assessment of the patient's condition and tolerance.
However, vitamin K2-7 was administered daily as two […] capsules.
Treatment with vitamin K2-7 of subjects continued even after their having reached VAS score of “2”.
The gradation was judged by Physician based on following criteria. By using Visual Analog Scale, i.e. 0-10 point scale: 0=Absent; 1-3=Mild; 4-6=Moderate; 7-10=Severe.

[2] = in vivo; cited from earlier work
[3] = natural forms, even at high doses; cited from earlier work

Row | SMILES | improvement in peripheral neuropathy ([1]; 1 of 11 patients who remained on 100 μg two times a day daily) | VAS Score ([1]; Patient 1, chemotherapy Bortezomib, Cyclophosphamide, Dexamethasone since June 2014, K2-7 from 16 Jun. 15 (350 μg), VAS before 8, scored 10 Dec. 15) | VAS Score ([1]; Patient 2, chemotherapy Lenalidomide, Dexamethasone since 2014, K2-7 from 25 Jun. 15 (350 μg), VAS before 8, scored 05 Nov. 15) | VAS Score ([1]; Patient 3, chemotherapy Lenalidomide, Dexamethasone, Zolendronic Acid since 2015, K2-7 from 19 Aug. 15 (100 μg), VAS before 8, scored 14 Mar. 16) | VAS Score ([1]; Patient 4, chemotherapy Bortezomib, Cyclophosphamide, Dexamethasone since 2015, K2-7 from 09 Jun. 16 (350 μg), VAS before 8, scored 22 Dec. 16) | VAS Score ([1]; Patient 5, chemotherapy Bortezomib, Cyclophosphamide, Dexamethasone since 2016, K2-7 from 23 Feb. 17 (350 μg), VAS before 9, scored 12 Aug. 17) | VAS Score ([1]; Patient 6, chemotherapy Rituximab, Cyclophosphamide, Doxorubicin, Vincristine, Prednisolone since November 2014, K2-7 from 22 May 17 (350 μg), VAS before 9, scored 04 Oct. 17) | VAS Score ([1]; Patient 7, chemotherapy Lenalidomide, Dexamethasone since 2010, K2-7 from 30 Jun. 17 (350 μg), VAS before 8, scored 27 Dec. 17) | VAS Score ([1]; Patient 8, chemotherapy Bortezomib, Cyclophosphamide, Dexamethasone since March 2017, K2-7 from 03 Nov. 17 (350 μg), VAS before 7, scored 03 Apr. 18) | VAS Score ([1]; Patient 9, chemotherapy Bortezomib, Cyclophosphamide, Dexamethasone since 2016, K2-7 from 20 Jul. 16 (350 μg), VAS before 9, scored 11 Jan. 17) | VAS Score ([1]; Patient 10, chemotherapy Lenalidomide, Dexamethasone since 2016, K2-7 from 10 Jun. 17 (350 μg), VAS before 8, scored 10 Jan. 18) | VAS Score ([1]; Patient 11, chemotherapy Dexamethasone since 2016, K2-7 from 25 Mar. 17 (350 μg), VAS before 9, scored 29 Sep. 17) | flare up of symptoms of drug-induced peripheral neuropathy ([1]; continuation of vitamin K2-7 during subsequent chemotherapy cycles) | adverse events during the vitamin K2-7 therapy ([1]; multiple myeloma patients on chemotherapy) | effect of continued treatment after reaching VAS score of 2 ([1]; treatment continued after VAS score of 2) | half-life [2] | symptoms of toxicity [3]
1 | CC(C)=CCC/C(C)=C/CC/C(C)=C/CC/C(C)=C/CC/C(C)=C/CC/C(C)=C/CC/C(C)=C/CC1=C(C)C(=O)c2ccccc2C1=O [Vitamin K2-7, vitamin K2-7] | significant improvement | 2 | 2 | 2 | 1 | 2 | 2 | 2 | 2 | 2 | 3 | 2 | prevented the flair up | no adverse events were noted | stabilised the VAS Score | more than 72 hours | have not produced symptoms of toxicity
2 | CC1=C(C/C=C(\C)CCC[C@H](C)CCC[C@H](C)CCCC(C)C)C(=O)c2ccccc2C1=O [vitamin K1, phylloquinonc] | – | – | – | – | – | – | – | – | – | – | – | – | – | – | – | 1.5 h | –
